These results are taken from patent US7989590B2, “Peptides that increase collagen or hyaluronic acid production” (Rohto Pharmaceutical Co., Ltd, priority 2005, dated 2011).

Like-named read-outs stand apart in the source and are kept apart here. Where a SMILES comes first, the peptide text is derived from it. Where no end group is shown, it is not given here.

Data set [1] concerns Fibroblasts derived from human normal skin (CRL-1836; ATCC). The data set can be described thus: Toxicity test: number of viable cells with Cell Counting Kit-8. The note with it: for Number of Viable Cells (cells): cells after 72 hours of culture. For orientation: Tetrazolium dyes change colour on reduction, which living cells bring about.
Text: (§1) For the cells after the culture solution was collected in Example 6, the number of viable cells was counted in the same manner as in Example 4.
(§2) For the cells after the culture solution was collected in Example 10, the number of viable cells was counted as in the same manner in Example 4.
(§3) For the cells after the culture solution was collected in Example 14, the number of viable cells was counted in the same manner as in Example 4.
(§4) For the cells after the culture solution was collected in Example 17, the number of viable cells was counted in the same manner as in Example 4.
(§5) For the cells after the culture solution was collected in Example 20, the number of viable cells was counted in the same manner as in Example 4.
Data set [2] has the same test system.
Text: as §1, §2, §3, §4, §5

Consider `CC(C)C[C@H](N)C(=O)N[C@@H](CCC(=O)O)C(=O)N[C@@H](Cc1c[nH]cn1)C(=O)N[C@@H](C)C(N)=O` [C-terminal-Amidated LEHA] (H-LEHA-NH2), for which, in data set [1] (peptide 10 μg/ml), the “Number of Viable Cells (cells)” value is 2.6 × 10^4 cells.
With `CC(C)C[C@H](N)C(=O)N[C@@H](CC(=O)O)C(=O)N[C@@H](Cc1c[nH]cn1)C(=O)N[C@@H](C)C(=O)O` [LDHA, Leu-Asp-His-Ala] (H-LDHA-OH), the “number of viable cells, result in words” value in data set [1] (1 μg/ml, versus control) is “no decrease”. The “Number of Viable Cells (cells)” value in data set [1] (peptide 1 μg/ml) is reported as 3.3 × 10^4 cells.
For `CC(C)C[C@H](N)C(=O)N[C@@H](CCC(=O)O)C(=O)N[C@@H](Cc1c[nH]cn1)C(=O)O` [LEH, Leu-Glu-His] (H-Leu-Glu-His-OH), the “number of viable cells, result in words” value in data set [2] is recorded as “no significant decrease”.
In the case of `CC(C)C[C@H](N)C(=O)N[C@@H](CCC(=O)O)C(=O)N[C@@H](Cc1c[nH]cn1)C(=O)N[C@@H](C)C(=O)O` [LEHA, Leu-Glu-His-Ala] (H-LEHA-OH), in data set [1] (LEH and LEHA peptides prepared from soy protein, stated in present tense), the “number of viable cells, result in words” value is reported as “no significant decrease”. The “Number of Viable Cells (cells)” value in data set [1] (peptide 10 μg/ml) is 2.9 × 10^4 cells.
For `CC(C)C[C@H](N)C(=O)N[C@@H](CCC(=O)O)C(=O)N[C@@H](CCCCN)C(=O)N[C@@H](C)C(=O)O` [LEKA, Leu-Glu-Lys-Ala] (H-LEKA-OH), the “number of viable cells, result in words” value in data set [1] (10 μg/ml, versus control) is recorded as “no decrease”. In addition, the “Number of Viable Cells (cells)” value in data set [1] (peptide 10 μg/ml) is listed as 3.6 × 10^4 cells.
As for `CC(=O)N[C@@H](CC(C)C)C(=O)N[C@@H](CCC(=O)O)C(=O)N[C@@H](Cc1c[nH]cn1)C(=O)N[C@@H](C)C(=O)O` [N-terminal-Acetylated-LEHA] (Ac-LEHA-OH), the “Number of Viable Cells (cells)” value in data set [1] (peptide 10 μg/ml) is recorded as 2.8 × 10^4 cells.
In the case of LEHAF [LEHAF, Leu-Glu-His-Ala-Phe], the “number of viable cells, result in words” value in data set [1] (1 or 3 μg/ml, versus control) is “no significant decrease”. Also, the “Number of Viable Cells (cells)” value in data set [1] (peptide 1 μg/ml) and in data set [1] (peptide 3 μg/ml) was 3.0 × 10^4 cells each time.
